Assay results: patent publication US10131679B2, “Substituted dihydropyrrolopyrazole compound” (UBE INDUSTRIES, LTD., priority 2014, dated 2018)
Where a name gives a salt, the structure may show the parent alone.

What was measured:
[1] = target: T1, PAK4 (Homo sapiens, UniProt O96013); test: PAK4 enzyme inhibition test; type: biochemical; conditions: Ki=IC50/(1+S/Km); 33P bound to MBP, [γ-33P]ATP, 30° C. for 20 minutes; read-out: Ki value of PAK4 inhibitory activity
T1 construct: purchased Invitrogen Corp. PV4212
Procedure: PAK4 Enzyme Inhibition Test
The preparation of a buffer solution was performed by mixing a trishydroxyaminomethane buffer solution (Tris buffer solution) (pH 7.5), DTT, Triton X-100, MgCl2, ethylene glycol bis(β-aminoethyl ether)-N,N,N′,N′-tetraacetic acid (EGTA), (3-glycerol phosphate, and sodium orthovanadate(V). A 40 μM [γ-^33P]ATP solution was used by diluting a 10 mM ATP solution and a commercially available [γ-^33P]ATP solution (manufactured by PerkinElmer, Inc., Code No. NEG-302H) with the buffer solution. A PAK4 solution was used by diluting commercially available PAK4 (manufactured by Invitrogen Corp., Catalog No. PV4212) with the buffer solution. A substrate solution was used by diluting MBP with the buffer solution. As for the preparation of a reaction solution, the buffer solution, the 40 μM [γ-^33P]ATP solution, the PAK4 solution, and the substrate solution were mixed at 4° C. to obtain a reaction solution.
(§1) PAK4 enzyme reaction was performed by adding 5 μL of a test compound solution prepared with 10% DMSO/90% injectable distilled water, and 45 μL of the reaction solution in a 1.5 mL microtube at 4° C. and reacting in the microtube at 30° C. for 20 minutes in a water bath incubator. After the reaction, a 10% aqueous TCA solution was added to each microtube while cooled to 4° C., and mixed to terminate the reaction. The resultant was left standing at 4° C. for 10 minutes and then centrifuged in a centrifuge, and the supernatant was discarded. Next, a 2% aqueous TCA solution was added, mixed, and then centrifuged in a centrifuge, and the supernatant was discarded. This washing operation was performed twice. After the washing, precipitates were dissolved in a 1 N aqueous NaOH solution, and the radioactivity was measured with a liquid scintillation counter.
The calculation of the inhibitory activity of the test compound against PAK4 was performed as a test compound concentration inhibiting 50% of the amount of ^33P bound to MBP (IC50 value) by using EXSUS (version 8.0.0 or version 8.0.1, manufactured by CAC Exicare Corp.).
(§2) The calculation of a Ki value was performed according to the following calculation expression. S means the concentration of ATP contained in the reaction solution, and Km means a Michaelis-Menten constant. Ki=IC50/(1+S/Km)

[2] = test system: human large intestine cancer cell line (HCT-116); test: Human large intestine cancer (HCT-116) cell growth inhibition test; type: cell-based; conditions: 72 h, HCT-116, culture for 3 days, sulforhodamine B absorbance
Procedure: Human Large Intestine Cancer (HCT-116) Cell Growth Inhibition Test
The measurement of a human large intestine cancer cell growth inhibitory effect was carried out by modifying the method of Simak et al. (Cancer Research, 69, 6208 (2009)).
A human large intestine cancer cell line (HCT-116) (manufactured by DS Pharma Biomedical Co., Ltd., Cat. No. EC91091005) was cultured in McCoy's 5a (manufactured by GIBCO/Thermo Fisher Scientific, Inc., REF. 16600-082) medium containing 10% FBS (manufactured by GIBCO/Thermo Fisher Scientific, Inc., REF. 10082-147) and 1% penicillin/streptomycin/amphotericin B (manufactured by GIBCO/Thermo Fisher Scientific, Inc., REF. 15240-096) and inoculated at 1.0×10^3 cells/well in a 96-well plate (manufactured by Corning Inc., REF. 353072). After overnight culture in a carbon dioxide incubator, it was replaced with a fresh McCoy's 5a medium containing 10% FBS on the next day, and a test compound dissolved in DMSO (manufactured by Wako Pure Chemical Industries, Ltd., Code No. 043-07216) (final DMSO concentration: 0.1%) was added and left standing in a carbon dioxide incubator. After culturing for 3 days, the absorbance of each well was measured by using In Vitro Toxicology Assay Kit Sulforhodamine B based (manufactured by Sigma-Aldrich Co. LLC., Pcode 1001910706).
The rate of inhibition of cell growth at each concentration was calculated from the test compound concentration and the absorbance of sulforhodamine B, and the concentration of the test compound necessary for inhibiting 50% of cell growth (IC50 value) was calculated by using EXSUS (version 8.0.0 or version 8.0.1, manufactured by CAC Exicare Corp.).

[3] = target: T2, CDK2 (Homo sapiens, UniProt P24941); test: CDK2 enzyme inhibition test; type: biochemical; conditions: Ki=IC50/(1+S/Km); 33P bound to MBP, [γ-33P]ATP, 30° C. for 20 minutes; read-out: Ki value of CDK2 inhibitory activity
T2 construct: purchased Invitrogen Corp. PV3267
Procedure: CDK2 Enzyme Inhibition Test
The preparation of a buffer solution was performed by mixing a HEPES buffer solution (pH 7.4), DTT, Triton X-100, and MgCl2. A 500 μM [γ-^33P]ATP solution was used by diluting a 10 mM ATP solution and a commercially available [γ-^33P]ATP solution (manufactured by PerkinElmer, Inc., Code No. NEG-302H) with the buffer solution. A CDK2 solution was used by diluting commercially available CDK2 (manufactured by Invitrogen Corp., Catalog No. PV3267) with the buffer solution. A substrate solution was used by diluting MBP with the buffer solution. As for the preparation of a reaction solution, the buffer solution, the 500 μM [γ-^33P]ATP solution, the CDK2 solution, and the substrate solution were mixed at 4° C. to obtain a reaction solution.
as §1, with “CDK2” for “PAK4”, “mixed thereto,” for “mixed,”
The calculation of the inhibitory activity of the test compound against CDK2 was performed as a test compound concentration inhibiting 50% of the amount of ^33P bound to MBP (IC50 value) by using EXSUS (version 8.0.0 or version 8.0.1, manufactured by CAC Exicare Corp.).
as §2

[4] = target: T3, CDK7 (Homo sapiens, UniProt P50613); test: CDK7 enzyme inhibition test; type: biochemical; conditions: Ki=IC50/(1+S/Km); 33P bound to MBP, [γ-33P]ATP, 30° C. for 20 minutes; read-out: Ki value of CDK7 inhibitory activity
T3 construct: purchased Carna Biosciences, Inc. 04-108
Procedure: CDK7 Enzyme Inhibition Test
The preparation of a buffer solution was performed by mixing a N-2-hydroxyethylpiperazine-N′-2-ethanesulfonic acid buffer solution (HEPES buffer solution) (pH 7.4), dithiothreitol (DTT), Triton X-100, and magnesium chloride (MgCl2). A 500 μM [γ-^33P]ATP solution was used by diluting a 10 mM ATP solution and a commercially available [γ-^33P]ATP solution (manufactured by PerkinElmer, Inc., Code No. NEG-302H) with the buffer solution. A CDK7 solution was used by diluting commercially available CDK7 (manufactured by Carna Biosciences, Inc., Catalog No. 04-108) with the buffer solution. A substrate solution was used by diluting myelin basic protein (MBP) with the buffer solution. As for the preparation of a reaction solution, the buffer solution, the 500 μM [γ-^33P]ATP solution, the CDK7 solution, and the substrate solution were mixed at 4° C. to obtain a reaction solution.
CDK7 enzyme reaction was performed by adding 5 μL of a test compound solution prepared with 10% dimethyl sulfoxide (DMSO)/90% injectable distilled water, and 45 μL of the reaction solution to a 1.5 mL microtube at 4° C. and reacting in the microtube at 30° C. for 20 minutes in a water bath incubator. After the reaction, a 10% aqueous trichloroacetic acid (TCA) solution was added to each microtube while cooled to 4° C., and mixed to terminate the reaction. The resultant was left standing at 4° C. for 10 minutes and then centrifuged in a centrifuge, and the supernatant was discarded. Next, a 2% aqueous TCA solution was added, mixed, and then centrifuged in a centrifuge, and the supernatant was discarded. This washing operation was performed twice. After the washing, precipitates were dissolved in a 1 N aqueous sodium hydroxide (NaOH) solution, and the energy quantity (radioactivity) of the reaction product was measured with a liquid scintillation counter.
The calculation of the inhibitory activity of the test compound against CDK7 was performed as a test compound concentration inhibiting 50% of the amount of ^33P bound to MBP (IC50 value) by using EXSUS (version 8.0.0 or version 8.0.1, manufactured by CAC Exicare Corp.).
as §2

T1 sequence (O96013 whole entry): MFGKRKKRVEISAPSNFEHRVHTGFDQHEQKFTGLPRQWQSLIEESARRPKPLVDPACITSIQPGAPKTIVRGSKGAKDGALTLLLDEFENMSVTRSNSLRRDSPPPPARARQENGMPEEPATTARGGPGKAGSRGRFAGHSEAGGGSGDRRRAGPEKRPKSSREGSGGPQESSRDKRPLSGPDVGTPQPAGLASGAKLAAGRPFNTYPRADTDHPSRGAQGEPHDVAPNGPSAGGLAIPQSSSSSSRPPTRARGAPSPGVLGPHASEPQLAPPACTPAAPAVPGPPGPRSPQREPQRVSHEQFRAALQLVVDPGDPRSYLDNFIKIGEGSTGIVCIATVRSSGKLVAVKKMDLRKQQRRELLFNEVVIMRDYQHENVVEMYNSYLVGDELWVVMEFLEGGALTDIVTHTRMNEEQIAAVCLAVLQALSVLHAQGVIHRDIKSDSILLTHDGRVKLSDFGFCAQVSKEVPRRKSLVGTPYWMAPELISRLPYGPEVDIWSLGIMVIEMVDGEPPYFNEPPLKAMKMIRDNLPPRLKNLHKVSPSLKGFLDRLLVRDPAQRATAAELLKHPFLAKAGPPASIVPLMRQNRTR
T3 sequence (P50613 whole entry): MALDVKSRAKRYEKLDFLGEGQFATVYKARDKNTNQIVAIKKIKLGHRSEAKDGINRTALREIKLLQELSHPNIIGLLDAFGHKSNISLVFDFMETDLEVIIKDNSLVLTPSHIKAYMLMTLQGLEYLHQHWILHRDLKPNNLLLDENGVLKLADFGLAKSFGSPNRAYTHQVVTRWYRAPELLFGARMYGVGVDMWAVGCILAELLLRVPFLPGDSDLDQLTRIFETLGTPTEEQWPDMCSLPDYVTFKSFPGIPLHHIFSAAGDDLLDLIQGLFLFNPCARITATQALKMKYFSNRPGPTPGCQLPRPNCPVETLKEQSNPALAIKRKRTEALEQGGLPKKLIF
T3 sequence (P51946 whole entry partner): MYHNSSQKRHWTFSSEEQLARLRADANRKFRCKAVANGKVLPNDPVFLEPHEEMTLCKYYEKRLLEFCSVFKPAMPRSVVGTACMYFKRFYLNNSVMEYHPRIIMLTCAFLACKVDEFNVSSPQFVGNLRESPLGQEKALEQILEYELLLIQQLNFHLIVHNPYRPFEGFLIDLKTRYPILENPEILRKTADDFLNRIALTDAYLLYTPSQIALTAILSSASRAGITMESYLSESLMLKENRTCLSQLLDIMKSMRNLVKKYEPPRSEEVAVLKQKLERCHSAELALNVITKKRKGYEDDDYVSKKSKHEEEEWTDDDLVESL
T3 sequence (P51948 whole entry partner): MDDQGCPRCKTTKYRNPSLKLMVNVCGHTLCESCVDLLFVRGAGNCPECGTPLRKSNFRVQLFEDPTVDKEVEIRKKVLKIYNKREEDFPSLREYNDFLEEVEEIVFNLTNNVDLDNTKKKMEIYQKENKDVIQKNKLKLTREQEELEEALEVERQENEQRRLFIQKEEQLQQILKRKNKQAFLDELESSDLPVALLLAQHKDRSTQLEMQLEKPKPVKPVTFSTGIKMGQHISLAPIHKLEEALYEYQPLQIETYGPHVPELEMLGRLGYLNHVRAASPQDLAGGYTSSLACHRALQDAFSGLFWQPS

| Compound | Ki [1] | IC50 [2] | Ki [3] | Ki [4] |
| --- | --- | --- | --- | --- |
| CC[Si](C)(C)C(C)(C)C(=O)Nc1n[nH]c2c1CN(C(=O)N[C@H](CO)c1ccccc1)C2(C)C [II-116, (S)-3-[2-(Ethyldimethylsilyl)-2-methylpropanamido]-N-(2-hydroxy-1-phenylethyl)-6,6-dimethyl-4,6-dihydropyrrolo[3,4-c]pyrazole-5(1H)-carboxamide] | ≥ 500 nM | ≤ 500 nM | ≥ 1000 nM | ≤ 50 nM |
| CC(C)(O)C[C@@H](NC(=O)N1Cc2c(NC(=O)C3([Si](C)(C)C)CC3)n[nH]c2C1(C)C)c1ccccc1 [III-298, (R)—N-(3-Hydroxy-3-methyl-1-phenylbutyl)-6,6-dimethyl-3-[1-(trimethylsilyl)cyclopropanecarboxamido]-4,6-dihydropyrrolo[3,4-c]pyrazole-5(1H)-carboxamide] | ≥ 500 nM | ≤ 500 nM | ≥ 1000 nM | ≤ 50 nM |
| CC(C)(CO)C(NC(=O)N1Cc2c(NC(=O)C3([Si](C)(C)C)CC3)n[nH]c2C1(C)C)c1ccccc1 (centres unmarked) [III-353, N-(3-Hydroxy-2,2-dimethyl-1-phenylpropyl)-6,6-dimethyl-3-[1-(trimethylsilyl)cyclopropanecarboxamido]-4,6-dihydropyrrolo[3,4-c]pyrazole-5(1H)-carboxamide] | ≥ 500 nM | ≤ 500 nM | ≥ 1000 nM | ≤ 50 nM |
| CC(C)(O)C[C@@H](NC(=O)N1Cc2c(NC(=O)C3([Si](C)(C)C)CCC3)n[nH]c2C1(C)C)c1ccccc1F [IV-883, (R)—N-[1-(2-Fluorophenyl)-3-hydroxy-3-methylbutyl]-6,6-dimethyl-3-[1-(trimethylsilyl)cyclobutanecarboxamido]-4,6-dihydropyrrolo[3,4-c]pyrazole-5(1H)-carboxamide] | ≥ 500 nM | ≤ 500 nM | ≥ 1000 nM | – |

Other lines, results leading:

| Ki [1] | IC50 [2] | Ki [3] | Ki [4] | Compound |
| --- | --- | --- | --- | --- |
| ≥ 500 nM | – | ≥ 1000 nM | – | CC1(C)c2[nH]nc(NC(=O)C3([Si](C)(C)C)CCC3)c2CN1C(=O)N[C@@H](CO)c1ccccc1 [IV-115, (R)—N-(2-Hydroxy-1-phenylethyl)-6,6-dimethyl-3-[1-(trimethylsilyl)cyclobutanecarboxamido]-4,6-dihydropyrrolo[3,4-c]pyrazole-5(1H)-carboxamide] |
| ≥ 500 nM | – | ≥ 1000 nM | ≤ 50 nM | CC1(C)c2[nH]nc(NC(=O)C3([Si](C)(C)C)CCC3)c2CN1C(=O)N[C@H](C(=O)O)c1ccccc1 [IV-403 (sodium salt), Sodium (S)-2-{6,6-dimethyl-3-[1-(trimethylsilyl)cyclobutanecarboxamido]-1,4,5,6-tetrahydropyrrolo[3,4-c]pyrazole-5-carboxamido}-2-phenylacetate] |
| ≥ 500 nM | ≤ 500 nM | ≥ 1000 nM | ≤ 50 nM | CC(O)CNC(=O)N1Cc2c(NC(=O)C3([Si](C)(C)C)CCC3)n[nH]c2C1(C)C (centres unmarked) [IV-442, N-(2-Hydroxypropyl)-6,6-dimethyl-3-[1-(trimethylsilyl)cyclobutanecarboxamido]-4,6-dihydropyrrolo[3,4-c]pyrazole-5(1H)-carboxamide] |
| ≥ 500 nM | ≤ 500 nM | ≥ 1000 nM | ≤ 50 nM | CC1(C)c2[nH]nc(NC(=O)C3([Si](C)(C)C)CCC3)c2CN1C(=O)NC(CO)c1ccccn1 (centres unmarked) [IV-534, N-[2-Hydroxy-1-(pyridin-2-yl)ethyl]-6,6-dimethyl-3-[1-(trimethylsilyl)cyclobutanecarboxamido]-4,6-dihydropyrrolo[3,4-c]pyrazole-5(1H)-carboxamide] |
| ≥ 500 nM | ≤ 500 nM | ≥ 1000 nM | ≤ 50 nM | CC(C)C(NC(=O)N1Cc2c(NC(=O)C3([Si](C)(C)C)CCC3)n[nH]c2C1(C)C)C(C)(C)CO (centres unmarked) [IV-822, N-(1-Hydroxy-2,2,4-trimethylpentan-3-yl)-6,6-dimethyl-3-[1-(trimethylsilyl)cyclobutanecarboxamido]-4,6-dihydropyrrolo[3,4-c]pyrazole-5(1H)-carboxamide] |
